Test results published in ChEMBL document CHEMBL1142346, “Quantitative structural-activity relationship (QSAR) study for fungicidal activities of thiazoline derivatives against rice blast” (2008).

Tests used:
Pyricularia grisea [1] = assay: Antifungal activity against Magnaporthe grisea infected rice plant assessed as logarithm of fungal control value at 100 ppm after 5 days; type: functional
Pyricularia grisea [2] = assay: Antifungal activity against Magnaporthe grisea infected rice plant after 5 days relative to control; type: functional; parameters: concentration or dose not given beside the values

SMILES	Activity (Pyricularia grisea [1])	Activity (Pyricularia grisea [2])
CCCCc1ccc(/N=c2/scc(CC(=O)Nc3ccc(OC)cc3)n2C)cc1	1.98	–
COc1ccc(NC(=O)Cc2cs/c(=N/c3ccc(Cl)cc3)n2C)cc1	1.97	–
CCOc1ccc(/N=c2/scc(CC(=O)Nc3ccc(OC)cc3)n2C)cc1	1.98	–
CN(C(=O)Cc1cs/c(=N\c2ccc(Br)cc2)n1C)c1ccccc1	–	0%
CN(C(=O)Cc1cs/c(=N\c2cc(Cl)cc(Cl)c2)n1C)c1ccccc1	–	8%
COc1ccc(NC(=O)Cc2cs/c(=N/c3ccc([N+](=O)[O-])cc3)n2C)cc1	2	–
CCc1ccc(NC(=O)Cc2cs/c(=N/c3ccc(Oc4ccccc4)cc3)n2C)cc1	1.98	–
CN(C(=O)Cc1cs/c(=N\c2ccc(F)cc2F)n1C)c1ccccc1	–	0%
CCCCCCc1ccc(/N=c2/scc(CC(=O)Nc3ccc(CC)cc3)n2C)cc1	2	–
COc1ccc(/N=c2\scc(CC(=O)Nc3ccc(Cl)cc3)n2C)cc1	–	83%
CCc1ccc(NC(=O)Cc2cs/c(=N\c3ccc(C#N)cc3)n2CCO)cc1	–	86%
CCc1ccc(NC(=O)Cc2cs/c(=N\c3ccc(C#N)cc3)n2C)cc1	–	93%
COc1ccc(NC(=O)Cc2cs/c(=N\c3ccc([N+](=O)[O-])cc3)n2CCO)cc1	–	20%
COc1ccc(NC(=O)Cc2cs/c(=N\c3ccc([N+](=O)[O-])cc3)n2C)cc1	–	99%
Cn1c(CC(=O)Nc2ccc(Br)cc2)cs/c1=N\c1ccc(Oc2ccccc2)cc1	–	98%
O=C(Cc1cs/c(=N\c2ccc(Oc3ccccc3)cc2)n1C1CC1)Nc1ccc(Br)cc1	–	16%
CN(C(=O)Cc1cs/c(=N\c2ccc(F)cc2)n1C)c1ccccc1	–	0%
CCc1ccc(NC(=O)Cc2cs/c(=N\c3ccc(OC)cc3)n2CCO)cc1	–	75%
COc1ccc(/N=c2/scc(CC(=O)Nc3ccc(OC(F)(F)F)cc3)n2C)cc1	1.4	–
CN(C(=O)Cc1cs/c(=N\c2ccc(Oc3ccccc3)cc2)n1C)c1ccccc1	–	0%
Cn1c(CC(=O)Nc2ccc(Oc3ccccc3)cc2)cs/c1=N/c1ccc(Br)cc1	1.23	–
CCCCOc1ccc(NC(=O)Cc2cs/c(=N/c3ccc(C(F)(F)F)cc3)n2C)cc1	1	–
Cn1c(CC(=O)Nc2ccc(Oc3ccccc3)cc2)cs/c1=N/c1ccc(Oc2ccccc2)cc1	1.4	–

SMILES	Activity (Pyricularia grisea [1])	Activity (Pyricularia grisea [2])
CCCCc1ccc(/N=c2/scc(CC(=O)Nc3ccc([N+](=O)[O-])cc3)n2C)cc1	1.11	–
CCc1ccc(NC(=O)Cc2cs/c(=N/c3ccc(-c4ccccc4)cc3)n2C)cc1	1.99	–
CCc1ccc(NC(=O)Cc2cs/c(=N/c3ccc(CC#N)cc3)n2C)cc1	2	–
CCc1ccc(NC(=O)Cc2cs/c(=N/c3ccc(C(C)=O)cc3)n2C)cc1	2	–
Cc1ccc(NC(=O)Cc2cs/c(=N/c3ccc(Br)cc3)n2C)cc1	1.94	–
Cn1c(CC(=O)Nc2ccc([N+](=O)[O-])cc2)cs/c1=N/c1ccc(F)cc1	0.9	–
CCCCCOc1ccc(/N=c2/scc(CC(=O)Nc3ccc(CC)cc3)n2C)cc1	1.96	–
CCc1ccc(NC(=O)Cc2cs/c(=N/c3ccc(I)cc3)n2C)cc1	1.97	–
CC(C)c1ccc(NC(=O)Cc2cs/c(=N/c3ccc(C(F)(F)F)cc3)n2C)cc1	1.8	–
CN(C(=O)Cc1cs/c(=N\c2ccc(C#N)cc2)n1C)c1ccccc1	–	25%
COc1ccc(NC(=O)Cc2cs/c(=N/c3ccc(SC)cc3)n2C)cc1	1.96	–
CCc1ccc(NC(=O)Cc2cs/c(=N/c3ccc(Cl)cc3)n2C)cc1	2	–
CCc1ccc(NC(=O)Cc2cs/c(=N/c3ccc(C#N)cc3)n2C)cc1	1.92	–
CCc1ccc(NC(=O)Cc2cs/c(=N\c3ccc(OC)cc3)n2C)cc1	1.99	98%
Cn1c(CC(=O)Nc2ccc(OC(F)(F)F)cc2)cs/c1=N/c1ccc(Cl)cc1	1.52	–
CN(C(=O)Cc1cs/c(=N\c2ccc(C(F)(F)F)cc2)n1C)c1ccccc1	–	0%
COc1ccc(/N=c2\scc(CC(=O)Nc3ccc(Cl)cc3)n2CCO)cc1	–	10%
CN(C(=O)Cc1cs/c(=N\c2cccc(F)c2)n1C)c1ccccc1	–	0%
COc1ccc(NC(=O)Cc2cs/c(=N/c3ccc(OC(F)(F)F)cc3)n2C)cc1	1.99	–
CCCCc1ccc(/N=c2/scc(CC(=O)Nc3ccc(CC)cc3)n2C)cc1	1.99	–
CCc1ccc(NC(=O)Cc2cs/c(=N/c3ccc(OC(F)(F)F)cc3)n2C)cc1 (stereo in doubt; 5)	1.99	–
CCc1ccc(NC(=O)Cc2cs/c(=N/c3ccc(OC(F)(F)F)cc3)n2C)cc1 (stereo in doubt; 8)	1.93	–
